The source of these data is ChEMBL document CHEMBL3390848, “Affinity selection and sequence-activity relationships of HIV-1 membrane fusion inhibitors directed at the drug-resistant variants” (Medchemcomm, 2010).

Residues, ends and D or L forms follow the SMILES beside them.

As usually defined, the Tm is the temperature at which the thermal transition is half complete. As a reminder, the EC50 is the midpoint of the concentration-response curve.

The test system of assay [1] is Envelope glycoprotein gp160 (Human immunodeficiency virus 1), Q72502 [V38A]. The assay can be described thus: Binding affinity to HIV1 His-tagged N-terminal heptad repeat of envelope glycoprotein gp41 assessed as recovery of N54 V38A mutant-drug complex after 2 hrs by LC-MS analysis. Also on record: concentration or dose not given beside the values.
Assay [2] has as its system Human immunodeficiency virus 1. Briefly: Binding affinity to HIV1 His-tagged N-terminal heptad repeat of envelope glycoprotein gp41 assessed as recovery of N54-drug complex after 2 hrs by LC-MS analysis. Also on record: concentration or dose not given beside the values.
The subject of assay [3] is Human immunodeficiency virus 1. Briefly: Binding affinity to HIV1 His-tagged N-terminal heptad repeat of envelope glycoprotein gp41 assessed as recovery of N54 N43D mutant-drug complex after 2 hrs by LC-MS analysis. Also on record: concentration or dose not given beside the values.
The test system of assay [4] is Human immunodeficiency virus 1. The assay can be described thus: Thermal stability of HIV1 envelope glycoprotein gp41 His-tagged N-terminal heptad repeat N54-drug complex assessed as thermal unfolding transition state by measuring molar ellipticity at 4 to 90 degC by circular dichroic spectra analysis.
In assay [5] the test system is Human immunodeficiency virus 1. Briefly: Thermal stability of HIV1 envelope glycoprotein gp41 His-tagged N-terminal heptad repeat N54 N43D mutant-drug complex assessed as thermal unfolding transition state by measuring molar ellipticity at 4 to 90 degC by circular dichroic spectra analysis.
The subject of assay [6] is Human immunodeficiency virus 1. Briefly: Antiviral activity against HIV1 NL4-3 harboring gp41 D36G mutant infected in human HeLa cells expressing CD4-LTR-beta-gal assessed as inhibition of viral replication after 48 hrs by MAGI assay. In kind it is functional, organism-based.
The test system of assay [7] is Envelope glycoprotein gp160 (Human immunodeficiency virus 1), Q72502 [V38A]. The assay can be described thus: Thermal stability of HIV1 envelope glycoprotein gp41 His-tagged N-terminal heptad repeat N54 V38A mutant-drug complex assessed as thermal unfolding transition state by measuring molar ellipticity at 4 to 90 degC by circular dichroic spectra analysis.
For assay [8], the system named is Human immunodeficiency virus 1. The assay can be described thus: Thermal stability of HIV1 envelope glycoprotein gp41 His-tagged N-terminal heptad repeat N36-drug complex assessed as thermal unfolding transition state by measuring molar ellipticity at 4 to 90 degC by circular dichroic spectra analysis.
Assay [9] concerns Human immunodeficiency virus 1. Briefly: Binding affinity to HIV1 His-tagged N-terminal heptad repeat of envelope glycoprotein gp41 assessed as recovery of N36-drug complex at 1 uM after 2 hrs by LC-MS analysis.
Assay [10] relates to Human immunodeficiency virus 1. The assay can be described thus: Binding affinity to HIV1 His-tagged N-terminal heptad repeat of envelope glycoprotein gp41 assessed as recovery of N36-drug complex at 10 uM after 2 hrs by LC-MS analysis.
The test system of assay [11] is Human immunodeficiency virus 1. The assay can be described thus: Binding affinity to HIV1 His-tagged N-terminal heptad repeat of envelope glycoprotein gp41 assessed as recovery of N36-drug complex at 6 uM after 2 hrs by LC-MS analysis.
The test system of assay [12] is Human immunodeficiency virus 1. Briefly: Binding affinity to HIV1 His-tagged N-terminal heptad repeat of envelope glycoprotein gp41 assessed as recovery of N36-drug complex at 0.6 uM after 2 hrs by LC-MS analysis.

For the molecule `CC[C@H](C)[C@H](NC(=O)[C@H](CC(C)C)NC(=O)[C@H](CCC(=O)O)NC(=O)[C@H](CCC(=O)O)NC(=O)[C@@H](NC(=O)[C@H](CC(C)C)NC(=O)[C@H](CO)NC(=O)[C@@H](NC(=O)[C@H](Cc1ccc(O)cc1)NC(C)=O)[C@@H](C)O)[C@@H](C)CC)C(=O)N[C@@H](CCCCN)C(=O)N[C@@H](CCCCN)C(=O)N[C@@H](C)C(=O)N[C@@H](CCC(=O)O)C(=O)N[C@@H](CCC(=O)O)C(=O)N[C@@H](CCC(N)=O)C(=O)N[C@@H](CCC(N)=O)C(=O)N[C@@H](CCCCN)C(=O)N[C@@H](CCCCN)C(=O)N[C@@H](CC(N)=O)C(=O)N[C@@H](CCC(=O)O)C(=O)N[C@@H](CCC(=O)O)C(=O)N[C@@H](CCC(=O)O)C(=O)N[C@@H](CC(C)C)C(=O)N[C@@H](CCCCN)C(=O)N[C@@H](CCCCN)C(=O)N[C@@H](CC(C)C)C(=O)N[C@@H](CCC(=O)O)C(=O)N[C@@H](CCC(=O)O)C(=O)N[C@@H](Cc1c[nH]c2ccccc12)C(=O)N[C@@H](C)C(=O)N[C@@H](CCCCN)C(=O)N[C@@H](CCCCN)C(=O)N[C@@H](Cc1c[nH]c2ccccc12)C(=O)N[C@@H](CC(N)=O)C(=O)N[C@@H](Cc1c[nH]c2ccccc12)C(=O)N[C@@H](Cc1ccccc1)C(N)=O` (Ac-YTSLIEELIKKAEEQQKKNEEELKKLEEWAKKWNWF-NH2), the Activity in assay [1] amounted to 10%; in [2], 10%; in assay [3] it was 10.2%. For the same molecule, the melting temperature (Tm) in assay [4] amounted to 80.1 °C; in assay [5], 71.9 °C; in assay [7] it was 64.6 °C. Moreover, the EC50 in assay [6] came out at 0.3 nM.
For the molecule `CC[C@H](C)[C@H](NC(=O)[C@H](CC(C)C)NC(=O)[C@H](CCC(=O)O)NC(=O)[C@H](CCC(=O)O)NC(=O)[C@@H](NC(=O)[C@H](CCCCN)NC(=O)[C@H](CCCCN)NC(=O)[C@@H](NC(=O)[C@H](Cc1ccc(O)cc1)NC(=O)[C@H](CCC(=O)O)NC(=O)[C@H](CCC(=O)O)NC(=O)[C@@H](NC(=O)[C@H](CCCCN)NC(=O)[C@H](CCCCN)NC(=O)[C@H](CC(=O)O)NC(=O)[C@H](Cc1c[nH]c2ccccc12)NC(=O)[C@H](CCC(=O)O)NC(=O)[C@H](CCC(=O)O)NC(=O)[C@H](Cc1c[nH]c2ccccc12)NC(C)=O)[C@@H](C)CC)[C@@H](C)O)[C@@H](C)CC)C(=O)N[C@@H](CCCCN)C(=O)N[C@@H](CCCCN)C(=O)N[C@@H](CC(=O)O)C(=O)N[C@@H](CCC(=O)O)C(=O)N[C@@H](CCC(=O)O)C(=O)N[C@@H](CCC(N)=O)C(=O)N[C@@H](CCC(N)=O)C(=O)N[C@@H](CCCCN)C(=O)N[C@@H](CCCCN)C(=O)N[C@@H](CC(N)=O)C(=O)N[C@@H](CCC(=O)O)C(=O)N[C@@H](CCC(=O)O)C(=O)N[C@@H](CCC(=O)O)C(=O)N[C@@H](CC(C)C)C(=O)N[C@@H](CCCCN)C(=O)N[C@@H](CCCCN)C(N)=O` (Ac-WEEWDKKIEEYTKKIEELIKKDEEQQKKNEEELKK-NH2), the Tm in assay [8] was determined as 59.7 °C. The EC50 in assay [6] stood at 15 nM. The Activity in [9] is 0%; in [10], 0.7%; in [11], 0%; in [12], 4.3%.
Regarding `CC[C@H](C)[C@H](NC(=O)[C@H](CCCCN)NC(=O)[C@H](CCCCN)NC(=O)[C@H](CC(=O)O)NC(=O)[C@H](Cc1c[nH]c2ccccc12)NC(=O)[C@H](CCC(=O)O)NC(=O)[C@H](CCC(=O)O)NC(=O)[C@H](Cc1c[nH]c2ccccc12)NC(C)=O)C(=O)N[C@@H](CCC(=O)O)C(=O)N[C@@H](CCC(=O)O)C(=O)N[C@@H](Cc1ccc(O)cc1)C(=O)N[C@H](C(=O)N[C@@H](CCCCN)C(=O)N[C@@H](CCCCN)C(=O)N[C@H](C(=O)N[C@@H](CCC(=O)O)C(=O)N[C@@H](CCC(=O)O)C(=O)N[C@@H](CC(C)C)C(=O)N[C@H](C(=O)N[C@@H](CCCCN)C(=O)N[C@@H](CCCCN)C(=O)N[C@H](C(=O)N[C@@H](CCC(=O)O)C(=O)N[C@@H](CCC(=O)O)C(=O)N[C@@H](CCC(N)=O)C(=O)N[C@@H](CCC(N)=O)C(=O)N[C@@H](CCCCN)C(=O)N[C@@H](CCCCN)C(=O)N[C@@H](CC(N)=O)C(=O)N[C@@H](CCC(=O)O)C(=O)N[C@@H](CCC(=O)O)C(=O)N[C@@H](CCC(=O)O)C(=O)N[C@@H](CC(C)C)C(=O)N[C@@H](CCCCN)C(=O)N[C@@H](CCCCN)C(N)=O)[C@@H](C)CC)[C@@H](C)CC)[C@@H](C)CC)[C@@H](C)O` (Ac-WEEWDKKIEEYTKKIEELIKKIEEQQKKNEEELKK-NH2), the Tm in assay [8] was determined as 84.6 °C. In addition, in [6], the 50% effective concentration (EC50) worked out at 1.3 nM. For the same molecule, the Activity in assay [9] amounted to 11.3%; in assay [10] it was 4.7%; in [11], 7.6%; in assay [12], 6.9%.
With `CC[C@H](C)[C@H](NC(=O)[C@H](CC(C)C)NC(=O)[C@H](CCC(=O)O)NC(=O)[C@H](CCC(=O)O)NC(=O)[C@@H](NC(=O)[C@H](CCCCN)NC(=O)[C@H](CCCCN)NC(=O)[C@@H](NC(=O)[C@H](Cc1ccc(O)cc1)NC(=O)[C@H](CCC(=O)O)NC(=O)[C@H](CCC(=O)O)NC(=O)[C@@H](NC(=O)[C@H](CCCCN)NC(=O)[C@H](CCCCN)NC(=O)[C@H](CC(=O)O)NC(=O)[C@H](Cc1c[nH]c2ccccc12)NC(=O)[C@H](CCC(=O)O)NC(=O)[C@H](CCC(=O)O)NC(=O)[C@H](Cc1c[nH]c2ccccc12)NC(C)=O)[C@@H](C)CC)[C@@H](C)O)[C@@H](C)CC)C(=O)N[C@@H](CCCCN)C(=O)N[C@@H](CCCCN)C(=O)N[C@@H](CCC(=O)O)C(=O)N[C@@H](CCC(=O)O)C(=O)N[C@@H](CCC(=O)O)C(=O)N[C@@H](CCC(N)=O)C(=O)N[C@@H](CCC(N)=O)C(=O)N[C@@H](CCCCN)C(=O)N[C@@H](CCCCN)C(=O)N[C@@H](CC(N)=O)C(=O)N[C@@H](CCC(=O)O)C(=O)N[C@@H](CCC(=O)O)C(=O)N[C@@H](CCC(=O)O)C(=O)N[C@@H](CC(C)C)C(=O)N[C@@H](CCCCN)C(=O)N[C@@H](CCCCN)C(N)=O` (Ac-WEEWDKKIEEYTKKIEELIKKEEEQQKKNEEELKK-NH2), in [8], the melting temperature (Tm) came to 66.2 °C. In addition, the EC50 in assay [6] was found to be 15 nM. The Activity in [9] came out at 1.8%; in [10] it was 1.3%; in [11], 1%; in assay [12], 5.1%.
In the case of `CC[C@H](C)[C@H](NC(=O)[C@H](CC(C)C)NC(=O)[C@H](CCC(=O)O)NC(=O)[C@H](CCC(=O)O)NC(=O)[C@@H](NC(=O)[C@H](CCCCN)NC(=O)[C@H](CCCCN)NC(=O)[C@@H](NC(=O)[C@H](Cc1ccc(O)cc1)NC(=O)[C@H](CCC(=O)O)NC(=O)[C@H](CCC(=O)O)NC(=O)[C@@H](NC(=O)[C@H](CCCCN)NC(=O)[C@H](CCCCN)NC(=O)[C@H](CC(=O)O)NC(=O)[C@H](Cc1c[nH]c2ccccc12)NC(=O)[C@H](CCC(=O)O)NC(=O)[C@H](CCC(=O)O)NC(=O)[C@H](Cc1c[nH]c2ccccc12)NC(C)=O)[C@@H](C)CC)[C@@H](C)O)[C@@H](C)CC)C(=O)N[C@@H](CCCCN)C(=O)N[C@@H](CCCCN)C(=O)N[C@@H](Cc1cnc[nH]1)C(=O)N[C@@H](CCC(=O)O)C(=O)N[C@@H](CCC(=O)O)C(=O)N[C@@H](CCC(N)=O)C(=O)N[C@@H](CCC(N)=O)C(=O)N[C@@H](CCCCN)C(=O)N[C@@H](CCCCN)C(=O)N[C@@H](CC(N)=O)C(=O)N[C@@H](CCC(=O)O)C(=O)N[C@@H](CCC(=O)O)C(=O)N[C@@H](CCC(=O)O)C(=O)N[C@@H](CC(C)C)C(=O)N[C@@H](CCCCN)C(=O)N[C@@H](CCCCN)C(N)=O` (Ac-WEEWDKKIEEYTKKIEELIKKHEEQQKKNEEELKK-NH2), the midpoint of thermal melting (Tm) in assay [8] came to 62.9 °C. The EC50 in assay [6] was 1.9 nM. In addition, the Activity in assay [9] worked out at 2.4%; in [10], 0.9%; in assay [11] it was 0.6%; in [12], 5.7%.
As to `CC[C@H](C)[C@H](NC(=O)[C@H](CC(C)C)NC(=O)[C@H](CCC(=O)O)NC(=O)[C@H](CCC(=O)O)NC(=O)[C@@H](NC(=O)[C@H](CCCCN)NC(=O)[C@H](CCCCN)NC(=O)[C@@H](NC(=O)[C@H](Cc1ccc(O)cc1)NC(=O)[C@H](CCC(=O)O)NC(=O)[C@H](CCC(=O)O)NC(=O)[C@@H](NC(=O)[C@H](CCCCN)NC(=O)[C@H](CCCCN)NC(=O)[C@H](CC(=O)O)NC(=O)[C@H](Cc1c[nH]c2ccccc12)NC(=O)[C@H](CCC(=O)O)NC(=O)[C@H](CCC(=O)O)NC(=O)[C@H](Cc1c[nH]c2ccccc12)NC(C)=O)[C@@H](C)CC)[C@@H](C)O)[C@@H](C)CC)C(=O)N[C@@H](CCCCN)C(=O)N[C@@H](CCCCN)C(=O)N[C@@H](Cc1ccc(O)cc1)C(=O)N[C@@H](CCC(=O)O)C(=O)N[C@@H](CCC(=O)O)C(=O)N[C@@H](CCC(N)=O)C(=O)N[C@@H](CCC(N)=O)C(=O)N[C@@H](CCCCN)C(=O)N[C@@H](CCCCN)C(=O)N[C@@H](CC(N)=O)C(=O)N[C@@H](CCC(=O)O)C(=O)N[C@@H](CCC(=O)O)C(=O)N[C@@H](CCC(=O)O)C(=O)N[C@@H](CC(C)C)C(=O)N[C@@H](CCCCN)C(=O)N[C@@H](CCCCN)C(N)=O` (Ac-WEEWDKKIEEYTKKIEELIKKYEEQQKKNEEELKK-NH2), the Tm in [8] came out at 68 °C. In addition, in assay [6], the EC50 amounted to 1.9 nM. Besides, the Activity is 2.3% in assay [9], 0.5% in [10], 0.4% in [11] and 5.9% in assay [12].
